Data taken from a melting point compilation (Tetko et al.; mined from patent text by program, amines drawn as free bases though some values may be those of a salt).

Row | Compound | melting point
1 | Cc1cc2c(cc1C)CC(=O)NC=C2 | 220 to 224 °C
2 | Cc1sc(C)c(Cc2nc3c(F)c(F)cc(F)c3s2)c1CC(=O)O | 170 to 171 °C
3 | CC(Br)CN(CC(C)Br)c1c(C(=O)NCCOP(=O)(O)O)cc([N+](=O)[O-])cc1[N+](=O)[O-] (centres undefined) | 157 to 161 °C
4 | Cc1c(Cc2cc(Cl)cc(Cl)c2)c(C(F)(F)F)nn1CCO | 91 to 93 °C
5 | CCCCc1nc(=O)c2cc(C#N)ccc2[nH]1 | 243 to 245 °C
6 | O=Cc1nnc2n1-c1ccc(Cl)cc1C(c1ccccc1)=NC2 | 133 to 135 °C
7 | CCOC(=O)CCc1c(-c2cc(Cl)ccc2OC)c2cc(C(F)(F)F)ccc2[nH]c1=O | 193 to 195 °C
8 | O=C(O)c1cn(CC2CC2)c2ccccc12 | 157 °C
9 | Cc1nc(Cl)c(C)c(-c2c(C)c(N)c(C)c3nsnc23)n1 | 105 to 106 °C
10 | Cc1c(CC(C)(C)C(=O)O)n(Cc2ccc(Cl)cc2)c2ccc(OCc3ccc4ccc(Cl)cc4n3)cc12 | 105 to 107 °C
11 | CN1C(=O)N(c2cc(F)c(C#N)cc2F)C(=O)CC1(N)C(F)(F)F (centres undefined) | 115 °C
12 | CC(C)(C)N(Cc1ccccc1)CC(O)c1cc(OCc2ccccc2)cc(OCc2ccccc2)c1 (centres undefined) | 78 to 79 °C
13 | Brc1cccc2nc(N3CCNCC3)ccc12 | 94 to 96 °C
14 | CC(=O)C(=NNc1ccc(Cl)cc1)Sc1ccc(Cl)cc1 | 164 to 167 °C
15 | COc1cc(C(=O)OCc2cc(COC(=O)c3ccc(O)c(OC)c3)cc(COC(=O)c3ccc(O)c(OC)c3)c2)ccc1O | 161 °C
16 | O=C1N(Cc2nnc(Cl)s2)c2ccccc2C12COc1cc3c(cc12)OCO3 (centres undefined) | 194 to 197 °C
17 | N#Cc1cccc(CN2CCc3sc(Nc4ncc(F)cn4)nc3-c3cn[nH]c32)c1 | 282 to 284 °C
18 | CN(CCSc1ccc([N+](=O)[O-])cc1)CCc1ccc([N+](=O)[O-])cc1 | 56 to 57 °C
19 | O=C(Oc1ccc([N+](=O)[O-])cc1)c1ccc2[nH]cc(CCN3C(=O)c4ccccc4C3=O)c2c1 | 248 to 251 °C
20 | CCCN(CCCCc1c[nH]c2ccc(F)cc12)C1COc2c(C(N)=O)ccc(F)c2C1 (centres undefined) | 116 °C
21 | Cc1ccc(S(=O)(=O)N(CCBr)c2ccc(Cl)cc2[N+](=O)[O-])cc1 | 70 to 72 °C
22 | CCCCN(C)CCOc1ccc(-n2c(-c3ccc(O)cc3)c(C)c3cc(O)ccc32)cc1 | 102 to 107 °C
23 | CN1C(=O)c2ccc(NCC(O)CCl)cc2C1=O (centres undefined) | 136 to 138 °C

Row | Compound | melting point
24 | O=CC(=Cc1ccc([N+](=O)[O-])s1)c1ccc(Br)cc1 | 105 to 108 °C
25 | O=C(O)c1sc2cc(OCc3cccnc3)ccc2c1S(=O)c1ccccc1CO (centres undefined) | 210 °C
26 | COC1CCC2(C)C(=CCC3C4CCC(=O)C4(C)CCC32)C1 (centres undefined) | 133 to 135 °C
27 | Cc1ccc(C=NNc2nsc3ccccc23)cc1 | 294 °C
28 | NS(=O)(=O)c1cnc(-c2cn(-c3cc(C(F)(F)F)cc(-c4ccc(C(F)(F)F)cc4)n3)cn2)s1 | > 266 °C
29 | Cc1c(C(=O)Nc2ccc(N3CCC(N4CCOCC4)CC3)c(Br)c2)cnn1-c1ccc(Cl)cc1 | 205 to 210 °C
30 | O=C1CCc2cc(CN3CCN(C(=O)c4ccc(Oc5ccc(NC(=O)c6ccc(C(F)(F)F)cc6)cn5)cc4)CC3)ccc2N1 | 250 to 252 °C
31 | CCC1(CCCCN2CCN(c3ccc(Cl)cc3)CC2)C(=O)Nc2ccc(F)cc21 (centres undefined) | 148 to 150 °C
32 | CCOC(=O)c1c(CN(CCC(C)C)CCC(C)C)nc2cc(OC)c(OC)cc2c1-c1ccc(OC)c(OC)c1 | 114 to 115 °C
33 | O=C(c1ccc(OCCCl)cc1)N1CCOCC1 | 102 to 104 °C
34 | ONc1ccccc1F | 70 to 71 °C
35 | CCCc1c(OCC(C)CC(=O)NC(C)CCCc2cccnc2)ccc(C(C)=O)c1O (centres undefined) | 77 to 83 °C
36 | CCOc1cc2ncnc(Cl)c2cc1OCC | 141 to 143 °C
37 | CNC1=NS(=O)(=O)N=C1NCCSCc1ccc(CN(C)C)o1 | 92 to 96 °C
38 | OCCC(O)OCn1ccc2c(Cl)ncnc21 (centres undefined) | 114 °C
39 | Nc1ccc(-c2ccc(N)cc2OC(F)(F)F)c(OC(F)(F)F)c1 | 67.5 to 68 °C
40 | Cc1cc(Br)c2c(c1)C=C(C(=O)O)C(C(F)(F)F)O2 (centres undefined) | 237 to 238 °C
41 | CCC1Cc2c(C)c(O)c(C)c(C)c2O1 (racemic) | 73 to 75 °C
42 | CCOC(=O)CN(CP(=O)(ONN1CCOCC1)ONN1CCOCC1)C(=O)C(F)(F)F | 69 to 74 °C
43 | O=C(c1c(F)cccc1F)N1COCN(c2ccc(SC(F)(F)C(F)(F)C(F)(F)F)cc2F)C1=O | 44 to 46 °C
44 | FC(F)(F)COc1cc(-c2cc(C(F)(F)F)n3cnc(-c4ccncc4)c3n2)ccc1C(F)(F)F | 233 °C
45 | C=CCc1c(O)ccc2c1CCCC2=O | 145 to 148 °C
46 | N#Cc1nc(N2CCNCC2)nc(N2CCS(=O)CC2)c1Cl | 206 to 208 °C

Other lines, results leading:

Row | melting point | Compound
47 | > 260 °C | O=C1CCC2=C1C(c1cccc([N+](=O)[O-])c1)C1=C(CCCS1)N2 (centres undefined)
48 | 198 to 199 °C | O=C(O)c1ccc(OCCOc2ccccc2)cc1
49 | 138 to 140 °C | COC(=O)C[C@H](C(=O)OC)N1C(=O)[C@@H](N2C(=O)c3ccccc3C2=O)[C@H]1C=Cc1ccccc1
50 | 144 to 148 °C | COCCc1nc2c(N)nc3cc(OCc4ccccc4)ccc3c2n1CCCCNS(C)(=O)=O
51 | 142 to 143 °C | COC(=O)c1ccc(Cn2nnc3ccc(NC(=O)OC4CCCC4)cc32)c(OC)c1
52 | 128 to 129 °C | COc1cc(CCCC2OC(=O)NC2=O)ccc1OCc1nc(-c2ccccc2)sc1C (centres undefined)
53 | 171 to 172 °C | COC(=O)c1ccc(-c2nc(-c3ccc(Cl)s3)cs2)cc1
54 | 184 to 186 °C | O=S(=O)(c1ccccc1)N1CCC(Nc2nc(Cl)nc(N3CCCC3)n2)CC1
55 | 213 to 216 °C | CC(C)(C)OC(=O)n1nc(-c2cc3ccc(OCCCN4CCCC(O)C4)cc3n2C(=O)OC(C)(C)C)c2sc(-c3ccccc3)cc21 (centres undefined)
56 | 184 °C | CN(C)C(=O)Nc1cc(CNc2ccccc2C(=O)Nc2ccc3cn(C)nc3c2)ccn1
57 | 109 to 110 °C | Cn1nc(C(F)(F)F)cc1Oc1cccc(-c2nc(C(F)(F)C(F)(F)F)no2)n1
58 | 186 °C | COc1ccc(C(=O)O)c2c1OCCCO2
59 | 138 to 140 °C | NC(=O)c1cn(C(CO)CCc2cccc3ccccc23)cn1 (centres undefined)
60 | 50 to 52 °C | COC(=O)CCCc1cc2cc(Cl)ccc2n1S(=O)(=O)c1ccc2c(c1)CN(C(C)=O)CC2
61 | 259 °C | C#CCOc1cccc(OC)c1-c1nc2cnncc2[nH]1
62 | 222 to 225 °C | CCCC(=O)c1c[nH]c2c(OC)csc2c1=O
63 | 235 to 237 °C | Cc1[nH]c(S(C)(=O)=O)nc1-c1cc(C(C)(C)C)c(O)c(C(C)(C)C)c1
64 | 57 to 58 °C | CCOC(=O)CON(CC)C(=S)Nc1ccccc1C(C)C
65 | 228 to 230 °C | COc1cc(C=Cc2nc3c(c(=O)n(C)c(=O)n3C)n2C)cc(OC)c1
66 | 175 to 177 °C | COc1nc(NC(=O)NS(=O)(=O)c2ccccc2S(=O)(=O)N2CCC2)nc(OC)n1
67 | 109 to 111 °C | CCCCN(Cc1ccc(-c2ccccc2-c2nnn[nH]2)cc1)c1ncncc1C(=O)OCC
68 | 139 to 140 °C | COc1ccc2c(n1)c(CCNC(=O)c1ccco1)c1n2CCCO1
69 | 132 to 134 °C | CN1CCC2(CC1)C(=O)N(C)C(=O)N2c1ccccc1
70 | 43 to 45 °C | CCOc1ccc(Nc2nc(NCc3ccco3)nc(Nc3ccc(O)cc3)n2)cc1

Row | melting point | Compound
71 | 177 to 178 °C | CCOC(=O)/C=C/c1cn(-c2ccccc2)nc1OCc1ccc(OCc2nc(-c3ccco3)oc2C)c(OC)c1
72 | 220 to 222 °C | CC(C)(C)C(=O)OCN1C(=O)NC2(C1=O)C(=O)N(Cc1ccc(Br)cc1F)c1ccccc12 (centres undefined)
73 | 148 °C | COc1ccc(-c2ccc3ccc(NC(=O)c4ccc(C(F)(F)F)cc4)nc3n2)cc1
74 | 146 to 148 °C | COC(=O)c1ccc2cc(OC)c(OC)cc2c1-c1ccnc(Br)c1
75 | 110 to 112 °C | COc1ccc(-c2nc(C#N)oc2-c2ccc(OC)cc2)cc1
76 | 280 °C | COc1ccc(-c2[nH]nc3c2C(=O)c2c(NC(=O)NNC(=O)c4ccccc4O)cccc2-3)cc1
77 | 222 to 225 °C | COC(=O)c1cc(-c2ccc3occc3c2)n[nH]c1=O
78 | 160 °C | CS(=O)(=O)c1nc2c(F)cccc2s1
79 | 257 to 259 °C | N=C1N(c2ccccc2)CCN1c1ccccc1[N+](=O)[O-]
80 | 200 °C | COc1ccc2c(c1)CCc1cc(Nc3ccccc3N)ccc1C2=O
81 | 208 °C | Cc1ccc2cccc(OCc3c(Cl)ccc(S(=O)(=O)N(C)Cc4cccc(C(N)=O)c4)c3Cl)c2n1
82 | 238 to 239 °C | Cc1cc(-c2sc(N3CCN(Cc4ccc(C(F)(F)F)cc4)C3=O)nc2C)n[nH]1
83 | 190 to 191 °C | COc1cc(C(=O)NC2CCN(C(=O)CN(C)C)CC2)ccc1Nc1ncc2c(n1)N(C1CCCCC1)CC(F)(F)C(=O)N2C
84 | > 300 °C | O=c1[nH]c(-c2c[nH]c3ccccc23)nc2ccc(N3CCCCC3)cc12
85 | 100 to 105 °C | CN(C(=O)C(Cc1c[nH]c2ccccc12)NC(=O)OC(C)(C)C(Cl)(Cl)Cl)C(Cc1ccccc1)C(N)=O (racemic)
86 | 143 to 144 °C | COc1cc(N)c(Cl)cc1C(=O)NCC1CCN(CCCCCSc2ccccc2)CC1
87 | 136 to 137 °C | CCOC(=O)C1=C(C)Nc2ccnc(OC(C)C)c2C1c1ccccc1 (centres undefined)
88 | 117 to 120 °C | Cc1nnsc1C(=O)Nc1ccc(-n2nc(C3CC3)cc2C2CC2)cc1
89 | > 300 °C | COc1ccc(-c2[nH]nc3c2C(=O)c2c(NC(=O)CN4CCN(CCN)CC4)cccc2-3)cc1
90 | > 250 °C | Cc1c(-c2ccc3c(c2)C(N2Cc4ccccc4C2=O)C(O)C(C)(C)O3)c(=O)c1=O (centres undefined)
91 | 108 to 110 °C | CC1(C)CN(S(=O)(=O)c2ccccc2F)c2cccc(Br)c2O1
92 | 210 to 212 °C | CSc1c(CC(=O)O)ccc2c1[nH]c1ccccc12
93 | 234 to 235 °C | Cc1cc(C)c2nc(C(=O)O)cc(-c3ccccc3Cl)c2c1
94 | 102 °C | COc1ncccc1-c1ccc(OC2SCC(O)C(O)C2O)c(Cl)n1 (centres undefined)
